Laboratory results as given in article PMC11999280, “Design and screening of novel endosomal escape compounds that enhance functional delivery of oligonucleotides in vitro” (Molecular Therapy. Nucleic Acids, 2025).

Tests used:
Format in all cases: cell-based
[1] = test system: mCherry-GAL9 expressing HepG2 cells; experiment: GAL9 recruitment assay, HepG2; conditions: calculated mean from >3 independent exp.
Experimental: (§1) Experiments assessing GAL9 localization as an indicator for endosomal remodeling were performed as previously described[15] using 8× stablemCherry-GAL9 expressing cell lines, SHSY5Y, U2OS, 16HBE, NCI-H358, HuH7, HepG2, HEK293, and HeLa. For mCherry-GAL9 recruitment, 3,000 or 6,500 cells/well (depending upon cell line) were seeded into 384-well CellCarrier Ultra plates 24 h prior to treatment (PerkinElmer, catalog no. 6007558). An Echo 655T acoustic dispenser (Labcyte) was used for EEE dose-response preparation by transferring to the cell plate. At assay endpoints, cells were PBS washed, 4% paraformaldehyde fixed at room temperature […] (VWR, catalog no. 9713.1000), and nuclei stained with PBS +1 μg/mL Hoechst 33342 (Thermo Fisher Scientific, catalog no. H21492).
(§2) Imaging was performed using a spinning-disk confocal microscope (Yokogawa: CV8000) with a ×20w objective (numerical aperture 1.0). Cells and mCherry-GAL9 structure identification and quantification were done using Columbus image-analysis software (PerkinElmer version 2.9.0). Data processing was done using Spotfire (Tibco version 11.4) and Prism (GraphPad version 9.1.0). Image panels were assembled using the FigureJ plugin for FIJI.[43] All mCherry-GAL9 experiments were performed three times (N = 3) with duplicated wells per treatment (n = 2).

[2] = test system: mCherry-GAL9 expressing 16HBE cells; experiment: GAL9 recruitment assay, 16HBE; conditions: calculated mean from >3 independent exp.
Experimental: as §1, §2

[3] = test system: mCherry-GAL9 expressing HEK293 cells; experiment: GAL9 recruitment assay, HEK293; conditions: calculated mean from >3 independent exp.
Experimental: as §1, §2

[4] = test system: HeLa_Luc705 cells (pLuc/705 splice-switching reporter); experiment: Functional 705-SSO delivery, luciferase splice-switching assay; conditions: mean from >3 independent experiments
Excerpt: Therefore, next, we functionally screened the SSO delivery in the HeLa_Luc705 reporter cell line. HeLa_Luc705 carries a pLuc/705 splice-switching reporter luciferase gene interrupted by a mutated β-globin intron, which creates a preferentially used cryptic 5′ splice site leading to aberrant splicing. Functional SSO delivery masks the cryptic site, redirecting the splicing machinery to the right splicing site, allowing the measurement of luciferase expression (Figure S1).[25]^,[26]^,[27]^,[28] We used SSO transfection with LF2000 as transfection control and the previously published endosomal escape enhancer CMP05 (here, EEE2) as positive control.[15]
For the assessment of functional SSO therapeutics, a HeLa_Luc705 cell line was grown in DMEM media supplemented with 10% fetal bovine serum (FBS). For most treatments, 10,000 cells/well were seeded in a 96-well plate, 24 h pre-incubated with 1- to 2-μM oligonucleotide, and then treated at the described EEE concentration. At 24 h post-treatment, cells were PBS rinsed and collected for further analysis (treatments and incubation times changed accordingly to the experiment design). Luciferase readout was performed as previously described,[15] using a GloMax 96-well plate microplate luminometer (Promega) immediately after adding 30 μL auto-injected luciferin substrate (Promega Firefly Luciferase Assay System; Thermo Scientific, catalog no. 16174) in a white-walled 96-well plate containing 30 μL 0.1% Triton X-100 (Sigma-Aldrich) cell lysed. Photon exposure time and delay were set to 10 and 2 s after injection. LF2000 was used as the transfection reagent control (Thermo Scientific, catalog no. 11668019). For EEE experiments using 1 or 2 μM SSOs, the control was prepared using lipofection with 100–200 nM SSO; this is to avoid complex induced cell toxicity.
705-SSO was purchased from and synthesized by Integrated DNA Technologies. The 705-SSO sequence was previously published, containing 2′-O-methylated bases and only phosphorothioate-saturated backbone linkages were included.[15] The 705-SSO was high-performance liquid chromatography purified, shipped, and stored in IDTE buffer (10 mM Tris, 0.1 mM EDTA).

[5] = test system: mCherry-GAL9 expressing HeLa cells; experiment: GAL9 recruitment assay, HeLa; conditions: calculated mean from >3 independent exp.
Experimental: as §1, §2

[6] = test system: mCherry-GAL9 expressing HuH7 cells; experiment: GAL9 recruitment assay, HuH7; conditions: calculated mean from >3 independent exp.
Experimental: as §1, §2

[7] = test system: mCherry-GAL9 expressing U2OS cells; experiment: GAL9 recruitment assay, U2OS; conditions: calculated mean from >3 independent exp.
Experimental: as §1, §2

[8] = test system: mCherry-GAL9 expressing SHSY5Y cells; experiment: GAL9 recruitment assay, SHSY5Y; conditions: calculated mean from >3 independent exp.
Experimental: as §1, §2

[9] = test system: mCherry-GAL9 expressing NCI-H358 cells; experiment: GAL9 recruitment assay, NCI-H358; conditions: calculated mean from >3 independent exp.
Experimental: as §1, §2

[10] = HeLa-Luc705 + 2 µM SSO, EEE 2.5 - 3 µM

COc1nn(C2CCN(C)CC2)cc1Nc1ncc(C(F)(F)F)c(-n2ccc3c(C#N)cccc32)n1 [EEE16]
Gal9 response compared to reference ([1]; EEE 0.31 µM): 0.010 | Gal9 response compared to reference ([1]; EEE 0.62 µM): 0.007 | Gal9 response compared to reference ([1]; EEE 1.25 µM): 0.008 | Gal9 response compared to reference ([1]; EEE 2.5 µM): 0.008 | Gal9 response compared to reference ([1]; EEE 5 µM): 0.009 | Gal9 response compared to reference ([1]; EEE 10 µM): 0.010 | Gal9 response compared to reference ([2]; EEE 0.31 µM): 0.008 | Gal9 response compared to reference ([2]; EEE 0.62 µM): 0.009 | Gal9 response compared to reference ([2]; EEE 1.25 µM): 0.008 | Gal9 response compared to reference ([2]; EEE 2.5 µM): 0.007 | Gal9 response compared to reference ([2]; EEE 5 µM): 0.011 | Gal9 response compared to reference ([2]; EEE 10 µM): 0.129 | Gal9 response compared to reference ([3]; EEE 0.31 µM): 0.023 | Gal9 response compared to reference ([3]; EEE 0.62 µM): 0.020 | Gal9 response compared to reference ([3]; EEE 1.25 µM): 0.019 | Gal9 response compared to reference ([3]; EEE 2.5 µM): 0.022 | Gal9 response compared to reference ([3]; EEE 5 µM): 0.024 | Gal9 response compared to reference ([3]; EEE 10 µM): 0.121 | Luciferase expression compared to reference [4, 10]: 0.810 | Gal9 response compared to reference ([5]; EEE 0.31 µM): 0.004 | Gal9 response compared to reference ([5]; EEE 0.62 µM): 0.004 | Gal9 response compared to reference ([5]; EEE 1.25 µM): 0.003 | Gal9 response compared to reference ([5]; EEE 2.5 µM): 0.004 | Gal9 response compared to reference ([5]; EEE 5 µM): 0.004 | Gal9 response compared to reference ([5]; EEE 10 µM): 0.005 | Gal9 response compared to reference ([6]; EEE 0.31 µM): 0.009 | Gal9 response compared to reference ([6]; EEE 0.62 µM): 0.007 | Gal9 response compared to reference ([6]; EEE 1.25 µM): 0.008 | Gal9 response compared to reference ([6]; EEE 2.5 µM): 0.012 | Gal9 response compared to reference ([6]; EEE 5 µM): 0.008 | Gal9 response compared to reference ([6]; EEE 10 µM): 0.022 | Gal9 response compared to reference ([7]; EEE 0.31 µM): 0.010 | Gal9 response compared to reference ([7]; EEE 0.62 µM): 0.011 | Gal9 response compared to reference ([7]; EEE 1.25 µM): 0.010 | Gal9 response compared to reference ([7]; EEE 2.5 µM): 0.010 | Gal9 response compared to reference ([7]; EEE 5 µM): 0.010 | Gal9 response compared to reference ([7]; EEE 10 µM): 0.024 | Gal9 response compared to reference ([8]; EEE 0.31 µM): 0.014 | Gal9 response compared to reference ([8]; EEE 0.62 µM): 0.014 | Gal9 response compared to reference ([8]; EEE 1.25 µM): 0.012 | Gal9 response compared to reference ([8]; EEE 2.5 µM): 0.012 | Gal9 response compared to reference ([8]; EEE 5 µM): 0.012 | Gal9 response compared to reference ([8]; EEE 10 µM): 0.042 | Gal9 response compared to reference ([9]; EEE 0.31 µM): 0.014 | Gal9 response compared to reference ([9]; EEE 0.62 µM): 0.017 | Gal9 response compared to reference ([9]; EEE 1.25 µM): 0.014 | Gal9 response compared to reference ([9]; EEE 2.5 µM): 0.018 | Gal9 response compared to reference ([9]; EEE 5 µM): 0.014 | Gal9 response compared to reference ([9]; EEE 10 µM): 0.019

COc1nn(C2CCNCC2C)cc1Nc1ncc(F)c(-n2ccc3c(C#N)cccc32)n1 (centres unmarked) [EEE35]
Luciferase expression compared to reference ([4]; HeLa-Luc705 + 1 µM SSO, EEE 0.5 µM): 1.095 | Luciferase expression compared to reference ([4]; HeLa-Luc705 + 1 µM SSO, EEE 2 µM): 1.804 | Luciferase expression compared to reference ([4]; HeLa-Luc705 + 1 µM SSO, EEE 4 µM): 4.870 | Luciferase expression compared to reference ([4]; HeLa-Luc705 + 1 µM SSO, EEE 5 µM): 9.588 | Luciferase expression compared to reference ([4]; HeLa-Luc705 + 1 µM SSO, EEE 1-1.25 µM): 1.101 | Luciferase expression compared to reference ([4]; HeLa-Luc705 + 1 µM SSO, EEE 2.5 - 3 µM): 2.812

COc1nn(C2CCN(C(C)C)CC2)cc1Nc1ncc(F)c(-n2ccc3c(C#N)cccc32)n1 [EEE9]
Gal9 response compared to reference ([1]; EEE 0.31 µM): 0.009 | Gal9 response compared to reference ([1]; EEE 0.62 µM): 0.009 | Gal9 response compared to reference ([1]; EEE 1.25 µM): 0.007 | Gal9 response compared to reference ([1]; EEE 2.5 µM): 0.011 | Gal9 response compared to reference ([1]; EEE 5 µM): 0.060 | Gal9 response compared to reference ([1]; EEE 10 µM): 0.564 | Gal9 response compared to reference ([2]; EEE 0.31 µM): 0.010 | Gal9 response compared to reference ([2]; EEE 0.62 µM): 0.013 | Gal9 response compared to reference ([2]; EEE 1.25 µM): 0.042 | Gal9 response compared to reference ([2]; EEE 2.5 µM): 0.209 | Gal9 response compared to reference ([2]; EEE 5 µM): 0.533 | Gal9 response compared to reference ([2]; EEE 10 µM): 0.691 | Gal9 response compared to reference ([3]; EEE 0.31 µM): 0.028 | Gal9 response compared to reference ([3]; EEE 0.62 µM): 0.032 | Gal9 response compared to reference ([3]; EEE 1.25 µM): 0.071 | Gal9 response compared to reference ([3]; EEE 2.5 µM): 0.396 | Gal9 response compared to reference ([3]; EEE 5 µM): 0.712 | Gal9 response compared to reference ([3]; EEE 10 µM): 0.639 | Luciferase expression compared to reference [4, 10]: 0.692 | Gal9 response compared to reference ([5]; EEE 0.31 µM): 0.005 | Gal9 response compared to reference ([5]; EEE 0.62 µM): 0.005 | Gal9 response compared to reference ([5]; EEE 1.25 µM): 0.007 | Gal9 response compared to reference ([5]; EEE 2.5 µM): 0.110 | Gal9 response compared to reference ([5]; EEE 5 µM): 0.393 | Gal9 response compared to reference ([5]; EEE 10 µM): 0.495 | Gal9 response compared to reference ([6]; EEE 0.31 µM): 0.012 | Gal9 response compared to reference ([6]; EEE 0.62 µM): 0.009 | Gal9 response compared to reference ([6]; EEE 1.25 µM): 0.019 | Gal9 response compared to reference ([6]; EEE 2.5 µM): 0.083 | Gal9 response compared to reference ([6]; EEE 5 µM): 0.220 | Gal9 response compared to reference ([6]; EEE 10 µM): 0.366 | Gal9 response compared to reference ([7]; EEE 0.31 µM): 0.012 | Gal9 response compared to reference ([7]; EEE 0.62 µM): 0.013 | Gal9 response compared to reference ([7]; EEE 1.25 µM): 0.018 | Gal9 response compared to reference ([7]; EEE 2.5 µM): 0.055 | Gal9 response compared to reference ([7]; EEE 5 µM): 0.254 | Gal9 response compared to reference ([7]; EEE 10 µM): 0.502 | Gal9 response compared to reference ([8]; EEE 0.31 µM): 0.013 | Gal9 response compared to reference ([8]; EEE 0.62 µM): 0.016 | Gal9 response compared to reference ([8]; EEE 1.25 µM): 0.117 | Gal9 response compared to reference ([8]; EEE 2.5 µM): 0.756 | Gal9 response compared to reference ([8]; EEE 5 µM): 0.780 | Gal9 response compared to reference ([8]; EEE 10 µM): 0.696 | Gal9 response compared to reference ([9]; EEE 0.31 µM): 0.018 | Gal9 response compared to reference ([9]; EEE 0.62 µM): 0.020 | Gal9 response compared to reference ([9]; EEE 1.25 µM): 0.031 | Gal9 response compared to reference ([9]; EEE 2.5 µM): 0.212 | Gal9 response compared to reference ([9]; EEE 5 µM): 0.569 | Gal9 response compared to reference ([9]; EEE 10 µM): 0.627
